Results published in PMC5371667, “Targeting Bile Acid Receptors: Discovery of a Potent and Selective Farnesoid X Receptor Agonist as a New Lead in the Pharmacological Approach to Liver Diseases” (Frontiers in Pharmacology, 2017).

Assays:
[1] = molecular target: T1, LXRβ (Homo sapiens, UniProt P55055); test: LXRβ transactivation on HepG2 cells (GAL4 LBD reporter); assay type: cell-based; details: 10 μM
T1 construct: expressed in transfected cells; host or cells: HepG2
T1 sequence (P55055 222-460 limits assumed): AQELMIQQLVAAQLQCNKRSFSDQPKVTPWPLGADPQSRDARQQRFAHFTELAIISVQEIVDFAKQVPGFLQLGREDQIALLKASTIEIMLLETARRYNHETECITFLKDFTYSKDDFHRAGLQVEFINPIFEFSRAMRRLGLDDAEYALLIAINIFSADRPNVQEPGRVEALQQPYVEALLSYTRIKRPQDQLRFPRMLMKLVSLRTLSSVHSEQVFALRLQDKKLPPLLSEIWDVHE
Procedure: (§1) To evaluate LXRα and LXRβ mediated transactivation, HepG2 cells were transfected with 200 ng of the reporter vector p(UAS)5XTKLuc, 100 ng of a vector containing the ligand binding domain of LXRα or LXRβ cloned upstream of the GAL4-DNA binding domain (i.e., pSG5-LXRαLBD-GAL4DBD or pSG5-LXRβLBD-GAL4DBD) and 100 of pGL4.70 Renilla. At 24 h post-transfection, cells were stimulated 18 h with 10 μM compound 2 and GW3965 (GW, 10 μM) was used as positive control. To investigate the PPARα and PPARγ mediated transactivation, HepG2 cells were transiently transfected with 200 ng reporter vector p(UAS)9XTKLuc, 100 ng of a vector containing the ligand binding domain of PPARα or PPARγ cloned upstream of the GAL4-DNA binding domain (i.e., pSG5- PPARαLBD-GAL4DBD or pSG5- PPARγLBD-GAL4DBD) and 100 of pGL4.70 Renilla. For PPARα transactivation, cells were stimulated with 10 μM compound 2 and gemfibrozil (GEM, 10 μM) was used as positive control. For PPARγ transactivation, cells were stimulated with 10 μM compound 2 and rosiglitazone (ROSI, 100 nM) was used as a positive control. Luciferase activities were assayed and normalized with Renilla activities.

[2] = system: FXR target genes SHP, OSTα, BSEP in HepG2 cells; test: RT-PCR of FXR target genes in HepG2 cells; assay type: cell-based, human; details: 1 μM, 18 h, versus 6-ECDCA 1 μM
Procedure: HepG2 cells were plated at 1 × 10^6 cells/well in a six well plate. After an overnight incubation, cells were starved and then stimulated for 18 h with compound 2 at 1 μM. Total RNA was isolated from HepG2 cells or liver tissues using the TRIzol reagent according to the manufacturer’s specifications (Invitrogen). One microgram of purified RNA was treated with DNase-I and reverse transcribed with Superscript II (Invitrogen). For Real Time PCR, 10 ng template was dissolved in 25 μL containing 200 nmol/L of each primer and 12.5 μL of 2× SYBR FAST Universal ready mix (Invitrogen). All reactions were performed in triplicate, and the thermal cycling conditions were as follows: 2 min at 95°C, followed by 40 cycles of 95°C for 20 s and 60°C for 30 s in StepOnePlus (Applied Biosystems). The relative mRNA expression was calculated accordingly to the Ct method. Primers were designed using the software PRIMER3^1 using published data obtained from the NCBI database. Forward and reverse primer sequences were the following: human GAPDH, […] and […]; human BSEP, […] and […]; human OSTα, […] and […]; human SHP, […] and […]; mouse NTCP, […] and […]; mouse CYP7A1, […] and […]; mouse FGF21, […] and […]; mouse GAPDH, […] and […]; mouse BSEP, […] and […]; mouse OSTα, […] and […]; mouse SHP, […] and […].

[3] = mouse, in vivo, po, 50 mg/kg
[4] = molecular target: T2, LXRα (Homo sapiens, UniProt Q13133); test: LXRα transactivation on HepG2 cells (GAL4 LBD reporter); assay type: cell-based; details: 10 μM
T2 construct: expressed in transfected cells; host or cells: HepG2
T2 sequence (Q13133 209-447 limits assumed): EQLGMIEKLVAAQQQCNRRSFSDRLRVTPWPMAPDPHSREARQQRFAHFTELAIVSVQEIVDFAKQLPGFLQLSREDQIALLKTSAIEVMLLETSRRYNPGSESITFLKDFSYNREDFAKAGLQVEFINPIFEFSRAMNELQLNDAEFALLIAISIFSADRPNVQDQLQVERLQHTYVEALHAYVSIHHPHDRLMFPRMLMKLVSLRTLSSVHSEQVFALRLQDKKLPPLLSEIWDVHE
Procedure: as §1

[5] = molecular target: T3, human GPBAR1 (Homo sapiens, UniProt Q8TDU6); test: GPBAR1 transactivation on HepG2 cells (CRE luciferase reporter); assay type: cell-based; details: 50 and 100 μM
T3 construct: expressed in transfected cells; host or cells: HepG2
T3 sequence (Q8TDU6 1-330): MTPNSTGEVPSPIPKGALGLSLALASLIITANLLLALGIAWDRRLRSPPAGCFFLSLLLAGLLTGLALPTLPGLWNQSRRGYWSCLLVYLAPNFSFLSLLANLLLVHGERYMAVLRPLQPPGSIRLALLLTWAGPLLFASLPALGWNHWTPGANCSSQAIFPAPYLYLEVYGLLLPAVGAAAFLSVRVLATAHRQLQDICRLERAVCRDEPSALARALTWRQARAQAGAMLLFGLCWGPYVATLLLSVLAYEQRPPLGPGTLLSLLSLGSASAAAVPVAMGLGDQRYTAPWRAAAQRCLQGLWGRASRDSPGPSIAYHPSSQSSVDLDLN
Procedure: For FXR mediated transactivation, HepG2 cells were plated at 5 × 10^4 cells/well in a 24 well plate. Cells were transfected with 200 ng of the reporter vector p(hsp27)-TK-LUC containing a FXR response element (IR1) cloned from the promoter of heat shock protein 27 (hsp27), 100 ng of pSG5-FXR, 100 ng of pSG5-RXR, and 100 ng of pGL4.70 (Promega), a vector encoding the human Renilla gene. For GPBAR1 mediated transactivation, HepG2 cells were plated at 5 × 10^4 cells/well in a 24 well-plate and transfected with 200 ng of pGL4.29 (Promega), a reporter vector containing a cAMP response element (CRE) that drives the transcription of the luciferase reporter gene luc2P, with 100 ng of pCMVSPORT6-human GPBAR1, and with 100 ng of pGL4.70 Renilla. […] TLCA (10 μM) was used as a positive control for GPBAR1 activity.

CC[C@H]1[C@@H](O)[C@@H]2[C@H](CC[C@]3(C)[C@@H]([C@H](C)CCC(=O)O)CC[C@@H]23)[C@@]2(C)CC[C@H](N=[N+]=[N-])C[C@@H]12 [compound 2, 3β-azido-6α-ethyl-7α-hydroxy-5β-cholan-24-oic acid]
LXRβ transactivation [1]: unable in inducing | modulation of BSEP mRNA expression [2]: more potent than 6-ECDCA | modulation of OSTα mRNA expression [2]: more potent than 6-ECDCA | modulation of SHP mRNA expression [2]: equipotent with 6-ECDCA | liver metabolism / tauro-conjugation [3]: extensive liver metabolism | LXRα transactivation [4]: unable in inducing | GPBAR1 transactivation [5]: inactivity
